Patent US20230063321A1, “Methods for Treating Inflammatory Bowel Diseases with alpha4beta7 Integrin Antagonists” (Protagonist Therapeutics, Inc., priority 2020, published 2023)
Read-outs that look alike come from different tables or passages of the source. Numbered stars: 1 amine (or outer) side, 2 acyl side, 3 side chain; on linkers, the order of the positions; unused ones are H or OH. Bridge positions count the residues as written; N and C are the ends. Square brackets hold non-standard residues; d marks the D form. Peptide text beside a SMILES is read from it. I, II: the chains in the order shown. ξ: configuration not given here. Phe(4-tBu) = CC(C)(C)c1ccc(C[C@H](N)C(=O)O)cc1; Diglycolyl = O=C(COCC(=O)[*:2])[*:1]; NMeR = CN[C@@H](CCCNC(=N)N)C(=O)O; β3hE = N[C@@H](CCC(=O)O)CC(=O)O; Thr(3ξ) = CC(O)[C@H](N)C(=O)O; X1 = O=C(c1ccccc1C[*:2])[*:1]; Pen = CC(C)(S)[C@H](N)C(=O)O

Assays:
[1] = Plasma and tissue exposure after single PO administration; format: in vivo, C57BL/6 female mice; conditions: single PO 30 mg/kg
Procedure: Twelve treatment-naïve C57BL/6 female mice were assigned to the study. […] At 1, 3, and 6 hours (h) post-dose, 4 mice/time point were subjected to terminal bleeds and euthanized; Peyer's patches (PPs), mesenteric lymph nodes (MLNs), small intestine, and colon were collected from each animal. The blood was processed to plasma; plasma and the tissue samples were submitted for pharmacokinetic (PK) analysis of Compound A levels using a qualified liquid chromatography tandem mass spectrometry (LC-MS/MS) method.
Processed plasma and tissue samples were analyzed on an AB/MDS Sciex API 4000 mass spectrometer. Positive ions were monitored in the multiple reaction-monitoring (MRM) mode. Quantitation was by peak area ratio.
PK data analysis was carried out using non-compartmental analysis (NCA) in Phoenix WinNonlin 8.1 (Certara USA Inc.). All concentration values below the lower limit of quantitation were treated as zero for the pharmacokinetic analysis. The maximum concentration (Cmax) and the apparent time to Cmax (tmax) were obtained by observation. The area under the concentration versus time curve (AUC) was obtained by the linear trapezoidal method. All concentration data and PK parameters were reported at up to three significant figures if the value was greater than one, and at up to three decimal places if the value was less than one. Time parameters were reported at up to two decimal places. The concentration data were plotted using Excel (Microsoft).

[2] = Oral bioavailability in cynomolgus monkeys; conditions: cynomolgus monkey, in vivo
[3] = Systemic absorption in animal studies; format: in vivo; conditions: oral
α4β7 integrin = molecular target: T1, α4β7 integrin (Homo sapiens, UniProt P13612+P26010); assay: Inhibition of MAdCAM1-mediated CD4+ T cell proliferation (plate bound anti-CD3 + MAdCAM1); format: cell-based
T1 construct: endogenous in cells; host or cells: primary human CD4+ T cells enriched from PBMCs of healthy donors
Procedure: PBMCs were purified from healthy human donors and enrichment of CD4+ T cells was performed. […] Phenotype, distribution of T-helper (Th) subsets and % RO analyses were conducted by flow cytometry of freshly stained live samples.

T1 sequence (P13612 34-1032): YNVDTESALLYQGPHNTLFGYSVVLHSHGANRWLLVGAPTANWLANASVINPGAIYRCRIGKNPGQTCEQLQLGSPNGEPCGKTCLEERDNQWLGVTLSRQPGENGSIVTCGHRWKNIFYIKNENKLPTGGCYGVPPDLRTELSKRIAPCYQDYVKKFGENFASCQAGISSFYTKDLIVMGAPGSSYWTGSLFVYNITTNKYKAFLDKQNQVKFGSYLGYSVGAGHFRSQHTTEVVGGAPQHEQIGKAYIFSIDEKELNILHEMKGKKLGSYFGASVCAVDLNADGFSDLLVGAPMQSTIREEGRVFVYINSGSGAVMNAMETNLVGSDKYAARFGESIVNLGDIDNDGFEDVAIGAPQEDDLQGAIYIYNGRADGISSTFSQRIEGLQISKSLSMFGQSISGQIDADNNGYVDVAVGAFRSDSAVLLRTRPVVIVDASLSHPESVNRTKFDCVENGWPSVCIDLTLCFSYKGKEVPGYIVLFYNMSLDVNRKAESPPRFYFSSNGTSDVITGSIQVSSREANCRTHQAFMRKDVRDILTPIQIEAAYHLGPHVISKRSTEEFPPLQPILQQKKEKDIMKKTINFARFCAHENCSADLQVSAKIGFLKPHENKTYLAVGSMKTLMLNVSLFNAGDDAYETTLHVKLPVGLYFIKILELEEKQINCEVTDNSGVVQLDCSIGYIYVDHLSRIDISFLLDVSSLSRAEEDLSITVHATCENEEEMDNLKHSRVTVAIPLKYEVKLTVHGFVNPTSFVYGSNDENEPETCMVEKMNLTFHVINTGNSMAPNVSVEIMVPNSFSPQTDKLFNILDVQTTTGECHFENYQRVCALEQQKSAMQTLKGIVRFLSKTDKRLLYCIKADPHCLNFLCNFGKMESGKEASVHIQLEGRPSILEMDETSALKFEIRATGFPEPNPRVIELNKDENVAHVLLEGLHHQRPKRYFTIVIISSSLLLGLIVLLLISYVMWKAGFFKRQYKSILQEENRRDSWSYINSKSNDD
T1 sequence (P26010 20-798): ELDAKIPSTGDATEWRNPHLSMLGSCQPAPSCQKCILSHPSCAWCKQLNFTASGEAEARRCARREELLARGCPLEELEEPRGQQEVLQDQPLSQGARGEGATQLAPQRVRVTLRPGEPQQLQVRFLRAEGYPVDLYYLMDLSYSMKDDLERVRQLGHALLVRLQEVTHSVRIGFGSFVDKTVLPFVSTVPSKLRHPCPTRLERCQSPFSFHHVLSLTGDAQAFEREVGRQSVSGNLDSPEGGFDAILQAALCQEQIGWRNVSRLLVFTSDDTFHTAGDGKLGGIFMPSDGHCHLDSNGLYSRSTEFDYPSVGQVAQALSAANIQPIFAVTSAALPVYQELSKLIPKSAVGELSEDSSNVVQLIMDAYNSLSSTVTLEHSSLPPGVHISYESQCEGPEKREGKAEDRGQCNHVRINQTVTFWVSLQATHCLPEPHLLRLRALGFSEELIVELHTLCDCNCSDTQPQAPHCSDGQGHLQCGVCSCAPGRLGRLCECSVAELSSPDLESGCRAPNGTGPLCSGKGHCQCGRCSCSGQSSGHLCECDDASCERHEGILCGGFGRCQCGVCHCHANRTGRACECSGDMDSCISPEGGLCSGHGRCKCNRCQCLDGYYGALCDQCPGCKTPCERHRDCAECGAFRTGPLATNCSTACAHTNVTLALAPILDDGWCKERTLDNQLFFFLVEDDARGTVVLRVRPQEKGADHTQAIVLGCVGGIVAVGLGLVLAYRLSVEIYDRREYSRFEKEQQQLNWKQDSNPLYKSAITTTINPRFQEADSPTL

CC(C)C[C@@H]1NC(=O)[C@H](C(C)O)NC(=O)[C@H](CC(=O)O)NC(=O)[C@H](CO)NC(=O)[C@H](CCCNC(=N)N)N(C)C(=O)c2ccccc2CSC(C)(C)[C@@H](C(=O)N[C@@H](Cc2ccc(C(C)(C)C)cc2)C(=O)N[C@@H](CCC(=O)O)CC(=O)N[C@H](CCCCNC(=O)COCC(=O)NCCCC[C@@H](NC(=O)C[C@H](CCC(=O)O)NC(=O)[C@H](Cc2ccc(C(C)(C)C)cc2)NC(=O)[C@H]2NC(=O)[C@H](CC(C)C)NC(=O)[C@H](C(C)O)NC(=O)[C@H](CC(=O)O)NC(=O)[C@H](CO)NC(=O)[C@H](CCCNC(=N)N)N(C)C(=O)c3ccccc3CSC2(C)C)C(=O)O)C(=O)O)NC1=O (stereo partly drawn) [Compound A, ((2-Benzyl)-(N-Me-R)-Ser-Asp-Thr-Leu-Pen-(Phe(4-tBlu))-(β-homo-Glu)-(D-Lys)-OH)2 (SEQ ID NO: 5) and linker-DIG diglycolic acid] (I: [NMeR]SD[Thr(3ξ)]L[Pen][Phe(4-tBu)][β3hE][dK]-OH / II: [NMeR]SD[Thr(3ξ)]L[Pen][Phe(4-tBu)][β3hE][dK]-OH; linker I:9-II:9 via Diglycolyl; linker I:N-I:6, II:N-II:6 via X1)
Cmax ([1]; female, C57BL/6, mouse, mesenteric lymph nodes, read-out: mean Cmax, MLNs): 56.8 ng/g | AUC ([1]; female, C57BL/6, mouse, plasma): 95.4 ng·h/mL | Cmax ([1]; female, C57BL/6, mouse, plasma, read-out: mean Cmax, plasma): 19 ng/mL | Cmax ([1]; female, C57BL/6, mouse, small intestine, read-out: mean Cmax, small intestine): 13300 ng/g | mean AUC, MLNs [1]: 226 ng·h/g | mean AUC, PPs [1]: 37900 ng·h/g | mean AUC, colon [1]: 15700 ng·h/g | mean AUC, small intestine [1]: 48600 ng·h/g | mean Cmax in PPs and colon relative to small intestine [1]: approximately two-fold lower | time of peak exposure, MLNs [1]: 1 h | time of peak exposure, PPs [1]: 1 h | time of peak exposure, colon [1]: 6 h | time of peak exposure, plasma [1]: 3 h | time of peak exposure, small intestine [1]: 1 h | bioavailability [2]: < 1% | systemic absorption [3]: < 1% | IC50 (α4β7 integrin): 4.4 nM | IC50 (α4β7 integrin; Average, read-out: IC50): 3.5 nM | inhibition of MAdCAM1-mediated proliferation of CD4+ T-cells (α4β7 integrin; Compound A 1 uM, inactive analog 1 uM, vedolizumab 500 ng/mL, three days): completely abolished | IC50 (α4β7 integrin; Donor 7, read-out: IC50): 1.6 nM | IC50 (α4β7 integrin; Donor 8, read-out: IC50): 3.7 nM | IC50 (α4β7 integrin; Donor 9, read-out: IC50): 5.2 nM | IC50 (α4β7 integrin; Donor 11, read-out: IC50): 8 nM
